Measurements taken from ChEMBL document CHEMBL5729404, “Heterocyclic RIP1 kinase inhibitors” (2022).

Each compound was assayed against T1, Receptor-interacting serine/threonine-protein kinase 1 (Homo sapiens, UniProt Q13546) (assay: Adding 5 μl of ADP-Glo™ terminated the reaction.).
T1 sequence (Q13546 whole entry): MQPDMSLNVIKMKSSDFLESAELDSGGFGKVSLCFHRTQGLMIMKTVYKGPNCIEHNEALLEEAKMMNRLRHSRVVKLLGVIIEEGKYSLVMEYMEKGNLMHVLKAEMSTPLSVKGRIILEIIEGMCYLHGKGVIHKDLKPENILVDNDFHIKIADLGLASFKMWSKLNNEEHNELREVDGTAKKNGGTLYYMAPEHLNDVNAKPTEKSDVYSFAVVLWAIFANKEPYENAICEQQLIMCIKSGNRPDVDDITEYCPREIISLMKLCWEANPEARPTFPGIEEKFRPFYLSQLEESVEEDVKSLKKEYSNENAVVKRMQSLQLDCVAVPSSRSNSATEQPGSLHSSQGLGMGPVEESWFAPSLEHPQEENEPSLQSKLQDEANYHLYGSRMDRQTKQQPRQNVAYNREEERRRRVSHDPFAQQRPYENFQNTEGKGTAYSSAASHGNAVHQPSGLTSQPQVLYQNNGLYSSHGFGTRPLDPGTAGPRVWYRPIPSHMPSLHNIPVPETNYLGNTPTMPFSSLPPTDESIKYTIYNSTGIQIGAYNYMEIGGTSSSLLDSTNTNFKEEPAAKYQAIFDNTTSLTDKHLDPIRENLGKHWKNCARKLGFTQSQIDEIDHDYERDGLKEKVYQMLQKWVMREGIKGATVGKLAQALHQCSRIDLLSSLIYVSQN
Compound `CN1C(=O)[C@@H](NC(=O)n2cc(Cc3ccccn3)cn2)COc2ccc(Br)cc21` has an IC50 of 65.2 nM. `CN1C(=O)[C@@H](NC(=O)n2cc(Cc3cccc(F)n3)cn2)COc2ccc(Br)cc21` gave an IC50 of 21.7 nM. Compound `CN1C(=O)[C@@H](NC(=O)n2cc(Cc3cccnn3)cn2)COc2ccc(Br)cc21` has an IC50 of 830 nM. `CN1C(=O)[C@@H](NC(=O)n2cc(Cc3ccncc3)cn2)COc2ccc(Br)cc21` gave an IC50 of 102 nM. In the case of `CN1C(=O)[C@@H](NC(=O)n2cc(Cc3cccnc3)cn2)COc2ccc(Br)cc21`, the IC50 is reported as 8.3 nM. `CN1C(=O)[C@@H](NC(=O)n2cc(Cc3ccc(F)nc3)cn2)COc2ccc(Br)cc21` gave an IC50 of 40.3 nM. In the case of `CN1C(=O)[C@@H](NC(=O)n2cc(Cc3cccc(C(F)(F)F)n3)cn2)COc2ccc(Br)cc21`, the IC50 is reported as 168 nM. For `Cc1cccc(Cc2cnn(C(=O)N[C@H]3COc4ccc(Br)cc4N(C)C3=O)c2)n1`, the IC50 was 104 nM.
